pIC50: −log10 of the molar value. Where two headings read alike, the source gives them in different places.
Experiments:
[1] = Human Liver Microsomal Stability Test; assay type: in vitro ADME; settings: human liver microsomes
Description: The metabolic degradation for a specific SYK-inhibitor is performed at 37° C. with pooled human liver microsomes (human liver microsomes are commercially available as “BD UltraPool™” by Corning Life Sciences, Fogostraat 12, 1060 LJ Amsterdam, The Netherlands). The final incubation volume of 100 μl per time point contains TRIS buffer pH 7.6 at RT (0.1 M), magnesium chloride (5 mM), microsomal protein (1 mg/ml) and the test compound at a final concentration of 1 μM.
Following a short preincubation period at 37° C., the reaction is initiated by addition of beta-nicotinamide adenine dinucleotide phosphate in its reduced form (NADPH, 1 mM) and terminated by transfering an aliquot into solvent after different time points. Additionally, the NADPH-independent degradation is monitored in incubations without NADPH, terminated at the last time point.
The quenched (terminated) incubations are then pelleted by centrifugation (10000 g, 5 min).
An aliquot of the supernatant is assayed by LC-MS/MS for the remaining amount of parent compound. The half-life (t½ INVITRO) is determined by the slope of the semilogarithmic plot of the concentration-time profile.
The intrinsic clearance (CL_[…]) is calculated by considering the amount of protein in the incubation: CL_[…] [μl/min/mg protein]=(Ln 2/(t½INVITRO [min]*protein content [mg/ml]))*1000
The protein content [mg/ml] was determined with the “Bicinchoninic Acid Kit” of Sigma Aldrich (commercially available).
The upscaled intrinsic Clearance (CL_UP_INT) is calcuated by considering the liver weight [g liver/kg body weight] and the microsomal recovery [mg protein/g liver]: CL_UP_INT [ml/min/kg]=0.001*CL_[…]*liver weight*microsomal recovery • with microsomal recovery=45 mg protein/g liver • with liver weight=25.7 g liver/kg body weight
The percent hepatic blood flow (% Qh) is finally calculated by considering the human liver blood flow Q [ml/min/kg]: % Qh [%]=((Q*CL_UP_INT)/(Q+CL_UP_INT)/Q)*100 • with liver blood flow (Q)=20.7 ml/min/kg.

[2] = biological target: Recombinant human Aurora B (amino acids 1-344) (Homo sapiens (Human), UniProt Q96GD4); assay: Aurora B Kinase Test (ADP Glo luminescence); assay type: biochemical; settings: for pIC50: read-out: AURB-inhibition IC50-value
Sequence of Recombinant human Aurora B (amino acids 1-344) (Q96GD4 whole entry, the tested form may be a part): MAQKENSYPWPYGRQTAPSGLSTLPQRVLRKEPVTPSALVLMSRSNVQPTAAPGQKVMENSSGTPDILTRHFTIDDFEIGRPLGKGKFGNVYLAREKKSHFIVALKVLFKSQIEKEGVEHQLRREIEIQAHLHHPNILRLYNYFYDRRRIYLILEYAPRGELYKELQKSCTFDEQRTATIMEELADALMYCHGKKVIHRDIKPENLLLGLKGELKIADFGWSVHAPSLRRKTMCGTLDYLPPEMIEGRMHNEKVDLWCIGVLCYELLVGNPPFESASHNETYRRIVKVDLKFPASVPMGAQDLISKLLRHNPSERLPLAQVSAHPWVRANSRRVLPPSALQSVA
Description: The activity of the Aurora B kinase protein was determined using the ADP Glo® Luminescence Kinase test (Promega; V9103X).
Serial Dilution is done in 1:10 steps in 100% DMSO.
Then 20 μl Kinase detection mix (Detection Buffer #V913B Promega; Kinase Detection Substrate #V914B Promega) were added and incubated for 40 minutes at room temperature.
The output file of the reader is a csv file that contains the well number and measured RLU. For data evaluation and calculation, the measurement of the negative control was set as 0% ctrl and the measurement of the positive control was set as 100% ctrl. Based on this values the % value for the measurement of each substance concentration was calculated using an Assay Explorer software (Accelrys). Normally, the % ctrl values calculated are between 0% and 100% values but may also occur outside these limits in individual cases based on variability or compound characteristics. The IC50 values were calculated from the % ctrl values using Assay Explorer software. Calculation: [y=(a−d)/(1+(x/c)^b)+d], a=low value, d=high value; x=conc M; c=IC50 M; b=hill; y=% ctrl.

FLT3 = FLT3 (Homo sapiens (Human), UniProt P36888); assay: FLT3 Kinase Test (Z'-LYTE); assay type: biochemical
Sequence of FLT3 (P36888 564-958): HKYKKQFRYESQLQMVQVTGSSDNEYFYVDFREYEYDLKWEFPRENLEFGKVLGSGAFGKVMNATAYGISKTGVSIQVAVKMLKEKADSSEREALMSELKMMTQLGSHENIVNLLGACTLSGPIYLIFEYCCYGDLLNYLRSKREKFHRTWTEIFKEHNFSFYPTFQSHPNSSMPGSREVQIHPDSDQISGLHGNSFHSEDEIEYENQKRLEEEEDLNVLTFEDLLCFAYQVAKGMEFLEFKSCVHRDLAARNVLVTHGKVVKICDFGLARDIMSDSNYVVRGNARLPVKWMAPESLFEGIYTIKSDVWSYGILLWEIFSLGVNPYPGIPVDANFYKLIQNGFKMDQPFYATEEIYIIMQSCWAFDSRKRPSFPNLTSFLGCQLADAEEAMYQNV
Description: The activity of FLT3 is measured using the Z′-LYTE™ assay technology from Invitrogen (#PV3191)
The reaction is started by addition of 2.5 μl of the 4×ATP solution.
Positive controls are reaction mixtures containing no test compound; negative controls (blanks) are reaction mixtures containing no kinase. As a further control, the phosphopeptide solution is added to wells without kinase (=100% phosphorylation control).
The reaction is performed for 1 h at room temperature before 5 μl of the development solution is added. After a further incubation for 1 h at room temperature 5 μl of the stop reagent is added.
The output text file is evaluated in an “MS-Excel-VB-Makro” and “GraphPadPrism” (Version 5) (GraphPad Software Inc.) is used to calculate the results. Data for the inhibition of FLT3 are reported in M. data for the inhibition of the protease are reported in % CTL.

[3] = comparison compounds, Example numbers of WO 2013/014060
[4] = compounds of the invention (own Example numbers)
[5] = comparison compounds, Example numbers of WO 2011/092128

## C[C@@H](Oc1nc(-c2ccc(N3CCN(C)CC3)cc2)cc2nn(C)cc12)[C@H]1CNC(=O)C1 [Example 67, (4R)-4-[(1R)-1-[2-methyl-6-[4-(4-methylpiperazin-1-yl)phenyl]pyrazolo[4,3-c]pyridin-4-yl]oxyethyl]-pyrrolidin-2-one]
[1]; percent hepatic blood flow
  microsomal stability Cl [% Qh]: 34 % Qh

## C[C@@H](Oc1cc(-c2ccc3c(c2)CNCC3)cc2ncccc12)[C@H]1CNC(=O)C1 [101 of WO 2013/014060]
[1]; percent hepatic blood flow
  microsomal stability Cl [% Qh]: <23 % Qh

## C[C@@H](Oc1nc(-c2ccc(C(F)F)nc2)cc2nn(C)cc12)[C@H]1CNC(=O)C1 [Example 51, (4R)-4-[(1R)-1-[6-[6-(difluoromethyl)-3-pyridyl]-2-methyl-pyrazolo[4,3-c]pyridin-4-yl]oxyethyl]pyrrolidin-2-one]
[1]; percent hepatic blood flow
  microsomal stability Cl [% Qh]: <23 % Qh

## Cc1nc2cc(-c3cc(O[C@H](C)[C@H]4CNC(=O)C4)c4cccnc4c3)ccc2n1C [compound 105]
[1]; [3]
  microsomal stability Cl [% Qh]: 64 % Qh

## COc1cc(-c2cc3nn(C)cc3c(O[C@H](C)[C@H]3CNC(=O)C3)n2)cc(OC)c1OC [Example 52, (4R)-4-[(1R)-1-[2-methyl-6-(3,4,5-trimethoxyphenyl)-pyrazolo[4,3-c]pyridin-4-yl]oxyethyl]pyrrolidin-2-one]
[1]; [4]
  microsomal stability Cl [% Qh]: <23 % Qh

## COc1cc(-c2cc(O[C@H](C)[C@H]3CNC(=O)C3)c3cccnc3c2)ccc1C(F)(F)F [compound 102]
[1]; [3]
  microsomal stability Cl [% Qh]: 54 % Qh

## C[C@@H](Oc1cc(-c2ccc(N3CCN(C)CC3)cc2)cc2nn(C)cc12)[C@H]1CNC(=O)C1 [Example 26, (4R)-4-[(1R)-1-[2-methyl-6-[4-(4-methylpiperazin-1-yl)phenyl]indazol-4-yl]oxyethyl]pyrrolidin-2-one]
[1]; percent hepatic blood flow
  microsomal stability Cl [% Qh]: <23 % Qh

## C[C@@H](Oc1cc(-c2ccc(C(=O)N3CCN(C)CC3)cc2)cc2ncccc12)[C@H]1CNC(=O)C1 [76 of WO 2013/014060]
[1]; percent hepatic blood flow
  microsomal stability Cl [% Qh]: <23 % Qh

## C[C@@H](Oc1cc(-c2ccccn2)cc2ncccc12)[C@H]1CNC(=O)C1 [6 of WO 2013/014060]
[1]; percent hepatic blood flow
  microsomal stability Cl [% Qh]: 24 % Qh

## COc1cc(-c2cc(O[C@H](C)[C@H]3CNC(=O)C3)c3cccnc3c2)cc(OC)c1OC [Example 2 of WO 2013/014060, reference compound]
[1]; [3]
  microsomal stability Cl [% Qh]: 81 % Qh

## C[C@@H](Oc1cc(-c2cnn(C(C)(C)C)c2)cc2nn(C)cc12)[C@H]1CNC(=O)C1 [Example 18, (4R)-4-[(1R)-1-[6-(1-tert-butylpyrazol-4-yl)-2-methyl-indazol-4-yl]oxyethyl]pyrrolidin-2-one]
[1]; [4]
  microsomal stability Cl [% Qh]: <23 % Qh

## C[C@@H](Oc1cc(-c2ccn(C)n2)cc2nn(C)cc12)[C@H]1CNC(=O)C1 [Example 14, (4R)-4-[(1R)-1-[2-methyl-6-(1-methylpyrazol-3-yl)indazol-4-yl]oxyethyl]-pyrrolidin-2-one]
[2]
  pIC50: < 4.30

## COc1ccc(-c2cc3nn(C)cc3c(O[C@H](C)[C@H]3CNC(=O)C3)n2)cn1 [Example 59, (4R)-4-[(1R)-1-[6-(6-methoxy-3-pyridyl)-2-methyl-pyrazolo-[4,3-c]pyridin-4-yl]oxyethyl]-pyrrolidin-2-one]
[1]; percent hepatic blood flow
  microsomal stability Cl [% Qh]: <23 % Qh

## C[C@@H](Oc1cc(-c2ccc(N3CCOCC3)cc2)cc2nn(C)cc12)[C@H]1CNC(=O)C1 [Example 22, (4R)-4-[(1R)-1-[2-Methyl-6-(4-morpholinophenyl)indazol-4-yl]oxyethyl]-pyrrolidin-2-one]
[1]; percent hepatic blood flow
  microsomal stability Cl [% Qh]: 25 % Qh

## Cc1nc2cc(-c3cc(O[C@H](C)[C@H]4CNC(=O)C4)c4cccnc4c3)ccc2[nH]1 [compound 109]
[1]; [3]
  microsomal stability Cl [% Qh]: 41 % Qh

## Cc1nc2ccc(-c3cc(O[C@H](C)[C@H]4CNC(=O)C4)c4cccnc4c3)cc2s1 [compound 85]
[1]; [3]
  microsomal stability Cl [% Qh]: 49 % Qh

## CC(C)Oc1ccc(-c2cc(O[C@H](C)[C@H]3CNC(=O)C3)c3cn(C)nc3c2)cn1 [Example 27, (4R)-4-[(1R)-1-[6-(6-isopropoxy-3-pyridyl)-2-methyl-indazol-4-yl]oxyethyl]pyrrolidin-2-one]
[1]; percent hepatic blood flow
  microsomal stability Cl [% Qh]: <23 % Qh

## C[C@@H](Oc1nc(-c2ccc(N3CCOCC3)nc2)cc2ncccc12)[C@H]1CNC(=O)C1 [45 of WO 2011/092128]
[1]; percent hepatic blood flow
  microsomal stability Cl [% Qh]: 53 % Qh

## C[C@@H](Oc1cc(-c2ccc3c(c2)c(N)nn3C)cc2nn(C)cc12)[C@H]1CNC(=O)C1 [Example 36, (4R)-4-[(1R)-1-[6-(3-amino-1-methyl-indazol-5-yl)-2-methyl-indazol-4-yl]oxyethyl]pyrrolidin-2-one]
[1]; [4]
  microsomal stability Cl [% Qh]: <23 % Qh

## C[C@@H](Oc1nc(-c2ccc3cc(C(=O)N(C)C)n(C)c3c2)cc2nn(C)cc12)[C@H]1CNC(=O)C1 [Example 56, N,N,1-trimethyl-6-[2-methyl-4-[(1R)-1-[(3R)-5-oxopyrrol-idin-3-yl]ethoxy]pyrazolo[4,3-c]pyridin-6-yl]indole-2-carboxamide]
[2]
  pIC50: < 4.30

## COc1cc(-c2cc3nn(C)cc3c(O[C@H](C)[C@H]3CNC(=O)C3)n2)ccc1O [Example 8, (4R)-4-[(1R)-1-[6-(4-Hydroxy-3-methoxy-phenyl)-2-methyl-pyrazolo[4,3-c]pyridin-4-yl]oxyethyl]pyrrolidin-2-one]
[2]; comparison compounds, Example numbers of WO 2013/014060, read-out: IC50 in μM (AURB-Inhibition)
  IC50: 0.643 µM
FLT3; comparison compounds, Example numbers of WO 2013/014060, read-out: IC50 in μM (FLT3-Inhibition)
  IC50: 0.369 µM
[1]; [5]
  microsomal stability Cl [% Qh]: 77 % Qh
[1]; [3]
  microsomal stability Cl [% Qh]: 58 % Qh
[1]; [4]
  microsomal stability Cl [% Qh]: <23 % Qh

## C[C@@H](Oc1cc(-c2ccc3c(cnn3C)c2)cc2nn(C)cc12)[C@H]1CNC(=O)C1 [Example 28, (4R)-4-[(1R)-1-[2-methyl-6-(1-methylindazol-5-yl)indazol-4-yl]oxyethyl]pyrrolidin-2-one]
[1]; [4]
  microsomal stability Cl [% Qh]: <23 % Qh

## COc1cc(-c2cc3ncccc3c(O[C@H](C)[C@H]3CNC(=O)C3)n2)cc(OC)c1Cl [Example 8 of WO 2011/092128, reference compound]
[1]; [5]
  microsomal stability Cl [% Qh]: 77 % Qh

## COc1cc(-c2cc3ncccc3c(O[C@H](C)[C@H]3CNC(=O)C3)n2)ccc1OC(F)(F)F [compound 4]
[1]; [5]
  microsomal stability Cl [% Qh]: 33 % Qh

## C[C@@H](Oc1cc(-c2ccc(CN3CCOCC3)cc2)cc2ncccc12)[C@H]1CNC(=O)C1 [43 of WO 2013/014060]
[1]; percent hepatic blood flow
  microsomal stability Cl [% Qh]: <23 % Qh

## (4R)-4-[(1R)-1-[6-[1-(Difluoromethyl)imidazol-4-yl]-2-methyl-pyrazolo[4,3-c]pyridin-4-yl]oxyethyl]pyrrolidin-2-one [Example 83]
FLT3; read-out: FLT3-inhibition IC50-value
  pIC50: 4.59

## Cc1nc(C)c2cc(-c3cc(O[C@H](C)[C@H]4CNC(=O)C4)c4cccnc4c3)ccc2n1 [compound 107]
[1]; [3]
  microsomal stability Cl [% Qh]: 38 % Qh

## C[C@@H](Oc1nc(-c2ccc3c(cnn3C)c2)cc2nn(C)cc12)[C@H]1CNC(=O)C1 [Example 62, (4R)-4-[(1R)-1-[2-methyl-6-(1-methylindazol-5-yl)pyrazolo[4,3-c]pyridin-4-yl]oxyethyl]pyrrolidin-2-one]
[1]; [4]
  microsomal stability Cl [% Qh]: <23 % Qh

## C[C@@H](Oc1nc(-c2ccc3cnn(C)c3c2)cc2nn(C)cc12)[C@H]1CNC(=O)C1 [Example 72, (4R)-4-[(1R)-1-[2-methyl-6-(1-methylindazol-6-yl)pyrazolo[4,3-c]pyridin-4-yl]oxyethyl]pyrrolidin-2-one]
[1]; [4]
  microsomal stability Cl [% Qh]: <23 % Qh

From patent publication US10947243B2, “Heteroaryl SYK inhibitors” (Boehringer Ingelheim International GmbH, priority 2014, dated 2021)
